Measurements as given in patent publication US8772348B2, “Materials and methods for pest control” (priority 2009, dated 2014).
Where two headings read alike, the source gives them in different places.

Legend:
[1] = system: Susceptible Musca domestica; test: Glass jar contact bioassay, susceptible (laboratory) house flies
Procedure: Briefly, adult house flies, Musca domestica, are obtained from strains that have been reared in the laboratory of the Entomology and Nematology Department, University of Florida. […] The positive control is exposed to serial dilutions of permethrin. The negative control is not exposed to any chemical compound. The mortality rate is measured after 2-hour, 4-hour, and 24-hour periods. Ataxic flies are considered dead.
The ability of house flies to recover from insecticidal exposure is also investigated. After a 2-hour exposure, each set of flies is transferred into a separate glass jar. The mortality rate is measured at two time intervals: first, immediately at the transfer (2 hours after the initial exposure), and second, 22 hours after the transfer (24 hours after the initial exposure).
The mortality rate is analyzed using the PROBIT model. The data is adjusted based on the mortality rate in the control set using the Abbott's transformation, and the percent mortality is further analyzed based on ANOVA measurement. The experiment is repeated at least three times. The data is discarded if the mortality rate in the control set exceeds 10%. The LC50 and LC90 values are further determined using the SAS (Cary, N.C., USA) statistical software. For each chemical compound, at least 1280 flies are examined.

[2] = system: Field-collected Musca domestica
Procedure: Briefly, one Musca domestica strain is collected from the University of Florida dairy unit in Alachua County, Florida, U.S.A. (“the Alachua strain”). The other Musca domestica strain is collected from a dairy farm in Gilchrist County, Florida, U.S.A. (“the Gilchrist strain”). Both strains are colonized adults, and are subsequently reared at 27° C. in the laboratory of the Entomology and Nematology Department, University of Florida.
The positive control is exposed to serial dilutions of permethrin. The negative control is not exposed to any chemical compound. 1 mL of insecticide was dissolved in acetone (concentrations between 0.5 and 20 mg mL^−1) in a 60 mL glass jar having a 67.86 cm^2 inside surface area (Wheaton, Millville, N.J.). Jars were allowed to dry for 1 h prior to fly introduction. Flies were held in jars for 2, 4 and 24 h, and fly mortality rate was scored at that time. Sugar water (10%) was provided in all assays, unless stated otherwise. The mortality rate is measured after a 2-hour, 4-hour, and 24-hour period. Ataxic flies are considered dead. The mortality rate and the LC values are determined using the same procedures as is illustrated in Example 2.

Aedes aegypti [3] = conditions: On filter paper
Procedure: Briefly, yellow fever mosquito, Ae. aegypti were obtained from strains that have been cultured in the laboratory of the Entomology and Nematology Department, University of Florida.
(§1) The mortality rate is measured after a 2-hour, 4-hour and 24-hour exposure period. Ataxic mosquitoes are considered dead.
(§2) The ability of Ae. aegypti to recover from insecticidal exposure is also investigated. After a 2-hour exposure, each set of Ae. aegypti is transferred into a separate jar. The mortality rate is measured at two time intervals: first, immediately at the transfer (2 hours after the initial exposure), and second, 22 hours after the transfer (24 hours after the initial exposure).

Aedes aegypti [4] = conditions: On camouflage military fabric
Procedure: as §1, §2
The mortality rate and the LC values are determined using the same procedures as is illustrated in Example 2.

Musca domestica [5] = conditions: M. domestica; formulation on plywood panels at 1.67 mg cm^−2; mortality 24 h after
Procedure: (§3) Briefly, each fly strain is divided into eight sets: three sets as the experiment, four sets as the positive control, and one set as the negative control. Flies are assayed on unpainted plywood panel boards that have been previously exposed to natural summer weather conditions for at least 10 days. […] The positive control set is treated with permethrin, geranyl acetone, rosalva or citronellol. The negative control set is treated with water. The formulation is applied at a uniform rate of 7.5 ml per 225 cm^2, sufficient to cover the entire panel without dripping. Subsequently, the treated panel boards are dried for about an hour.
(§4) In each set, 20 adult flies are placed onto the panel boards. Flies are secured with wooden embroidery hoops, covered with a coarse mesh screen cloth previously sprayed with the respective formulation. After 4 hours, flies are transferred into a clean jar. The mortality rate is measured 24 hours after the transfer, and is determined using the same procedures as are illustrated in Example 2.
(§5) Plywood panels (225 cm^2) were treated with chemicals at a rate of 1.67 mgcm^−2. Panels were treated on day 0 and held until exposure on post-treatment day. Mosquitoes were exposed to chemicals for 2 h, and mortality rate was assessed 24 h after initial exposure. Control contained formulation ingredients without semiochemicals.

Stomoxys calcitrans = conditions: S. calcitrans; formulation on plywood panels at 1.67 mg cm^−2; mortality 24 h after
Procedure: as §3, §4, §5

Musca domestica [6] = conditions: formulation on plywood panels, 3.33 mg cm^−2 (footnote 1.67), 2 h exposure, mortality 24 h after
Procedure: Briefly, after Musca domestica is exposed to formulations at concentration of 3.33 mg cm^−2 for 2 hours, each set is transferred into a separate glass jar, and held for another 24 hours.
(§6) Plywood panels (225 cm^2) were treated with chemicals at a rate of 1.67 mg cm^−2. Panels were treated on day 0 and was held until exposure on post-treatment day. Mosquitoes were exposed to chemicals for 2 h, and mortality rate was assessed 24 h after initial exposure. Control contained formulation ingredients without semiochemicals.

Aedes aegypti [7] = conditions: formulation on plywood panels at 1.67 mg cm^−2, 2 h exposure, mortality 24 h after initial exposure
Procedure: Briefly, after mosquitoes are assayed on unpainted plywood panel boards with formulation at a concentration of 1.67 mg cm^−2 for 2 hours, they are transferred into a separate glass jar, and held for another 24 hours. The mortality rate is measured daily for a continuous 4 days (Day 1 starts at 24 hours after the transfer), as is determined using the same procedures as are illustrated in Example 2.
as §6

[8] = 2 h constant exposure, glass jar
[9] = 2 h exposure, transferred to clean jars, mortality 24 h after initial exposure
[10] = 4 h constant exposure, glass jar
[11] = 24 h constant exposure, glass jar
[12] = Alachua strain, 2 h constant exposure
[13] = Alachua strain, 4 h constant exposure
[14] = Alachua strain, 24 h constant exposure
[15] = Gilchrist strain, 2 h constant exposure
[16] = Gilchrist strain, 4 h constant exposure
[17] = Gilchrist strain, 24 h constant exposure
[18] = 2 h exposure then transferred, mortality 24 h after initial exposure

## permethrin [reference compound]
[1]; [8]
  LC50: 0.18 μg cm^−2
  LC90: 1.20 μg cm^−2
[1]; [9]
  LC50: 0.58 μg cm^−2
  LC90: 3.56 μg cm^−2
[1]; 2 h transferred vs 2 h constant
  decline in toxicity after a 24-hour holding period subsequent to an initial 2-hour exposure: ~3 fold
[1]; [10]
  LC50: 0.10 μg cm^−2
  LC90: 0.95 μg cm^−2
[1]; [11]
  LC50: 0.03 μg cm^−2
  LC90: 0.41 μg cm^−2
[2]; [12]
  LC50: 4.61 μg cm^−2
  LC90: 14.86 μg cm^−2
[2]; [13]
  LC50: 4.10 μg cm^−2
  LC90: 15.85 μg cm^−2
[2]; [14]
  LC50: 0.99 μg cm^−2
  LC90: 3.78 μg cm^−2
[2]; [15]
  LC50: 0.41 μg cm^−2
  LC90: 1.82 μg cm^−2
[2]; [16]
  LC50: 0.39 μg cm^−2
  LC90: 1.51 μg cm^−2
[2]; [17]
  LC50: 0.16 μg cm^−2
  LC90: 0.85 μg cm^−2
Aedes aegypti [3]; 2 h constant exposure
  LC50: 0.02 μg cm^−2
Aedes aegypti [3]; [18]
  LC50: 0.04 μg cm^−2
Aedes aegypti [3]; 4 h constant exposure
  LC50: 0.0018 μg cm^−2
Aedes aegypti [3]; 24 hr constant exposure
  LC50: 0.00045 μg cm^−2
Aedes aegypti [4]; 2 h constant exposure
  LC50: 0.012 μg cm^−2
Aedes aegypti [4]; [18]
  LC50: 0.45 μg cm^−2
Aedes aegypti [4]; 4 h constant exposure
  LC50: 0.0009 μg cm^−2
Aedes aegypti [4]; 24 hr constant exposure
  LC50: 0.00031 μg cm^−2
Musca domestica [5]
  % mortality: 88.40a %
Stomoxys calcitrans
  % mortality: 100.00a %
Musca domestica [6]; day 1
  % mortality on various days following treatment: 100.00a %
Musca domestica [6]; day 2
  % mortality on various days following treatment: 90.50a %
Musca domestica [6]; day 3
  % mortality on various days following treatment: 97.50a %
Musca domestica [6]; day 5
  % mortality on various days following treatment: 97.50a %
Musca domestica [6]; day 7
  % mortality on various days following treatment: 97.50a %
Musca domestica [6]; day 14
  % mortality on various days following treatment: 67.00a %
Aedes aegypti [7]; day 1
  % mortality on various days following treatment: 100.00a %
Aedes aegypti [7]; day 2
  % mortality on various days following treatment: 99.00a %
Aedes aegypti [7]; day 3
  % mortality on various days following treatment: 98.0a %
Aedes aegypti [7]; day 4
  % mortality on various days following treatment: 96.50a %
